Data from patent US20060004002A1 (priority 2004, published 2006).
Read-outs that look alike come from different tables or passages of the source.

Columns and labels:
[1] = target: T1, Recombinant human Src (Homo sapiens, UniProt P12931); experiment: Src tyrosine kinase activity assay with poly E4Y and 32P-ATP; type: biochemical
T1 construct: made in house; host or cells: baculovirus-insect cell system
Protocol: (§1) Recombinant human Src was expressed using the baculovirus-insect cell system and purified as published (Budde et al., 1993 and 2000). Recombinant Csk and the FGF receptor (FGFr) were expressed as […] fusion proteins using the pGEX expression vector and E. coli, and purified as described (Sun & Budde, 1995).
(§2) The tyrosine kinase activity of Src, Csk and FGFr was determined using poly E4Y and ^32P-ATP. Briefly, enzymes were assayed in a reaction mixture […] consisting of 0.15 M EPPS-NaOH (pH 8.0) with 6 mM MgCl2, 0.2 mM γ^32P-ATP (0.2-0.4 mCi/μmol), 10% glycerol, 0.1% Triton X-100, and poly E4Y. Poly E4Y is a synthetic peptide whose phosphorylation is measured in this assay by the addition of the radioactively labeled phosphate from the ATP (Budde et al., 1995). […] When ATP was varied (0, 50, 100 and 250 μM), poly E4Y was kept constant at 150 μg/ml.

[2] = target: T2, Recombinant Csk (Homo sapiens, UniProt P41240); experiment: Csk tyrosine kinase activity assay with poly E4Y and 32P-ATP; type: biochemical; conditions: NI = no inhibition
T2 construct: GST ('glutathione-5-transferase' [sic]); made in house; host or cells: E. coli (pGEX expression vector)
Protocol: as §1, §2

[3] = poly E4Y, 32P-ATP, NI = no inhibition, read-out: IC50 Value Src
[4] = especially good inhibitors of Src, screening assay 50 μg/ml poly E4Y, 0.2 mM ATP, read-out: IC50 (inhibitors of Src)

T1 sequence (P12931 whole entry): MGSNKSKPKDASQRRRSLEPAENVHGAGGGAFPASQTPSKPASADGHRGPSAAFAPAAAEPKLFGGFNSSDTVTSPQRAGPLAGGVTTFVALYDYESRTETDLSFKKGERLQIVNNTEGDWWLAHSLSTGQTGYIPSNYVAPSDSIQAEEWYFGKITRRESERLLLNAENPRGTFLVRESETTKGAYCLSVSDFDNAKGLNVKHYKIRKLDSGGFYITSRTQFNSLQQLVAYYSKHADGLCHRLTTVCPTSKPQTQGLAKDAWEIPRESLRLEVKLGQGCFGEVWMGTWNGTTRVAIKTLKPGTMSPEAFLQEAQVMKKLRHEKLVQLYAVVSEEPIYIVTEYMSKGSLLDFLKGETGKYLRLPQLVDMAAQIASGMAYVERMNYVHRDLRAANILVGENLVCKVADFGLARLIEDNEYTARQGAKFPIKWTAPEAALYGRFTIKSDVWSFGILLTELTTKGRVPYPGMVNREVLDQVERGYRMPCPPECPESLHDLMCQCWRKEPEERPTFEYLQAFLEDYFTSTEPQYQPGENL
T2 sequence (P41240 whole entry, species assumed): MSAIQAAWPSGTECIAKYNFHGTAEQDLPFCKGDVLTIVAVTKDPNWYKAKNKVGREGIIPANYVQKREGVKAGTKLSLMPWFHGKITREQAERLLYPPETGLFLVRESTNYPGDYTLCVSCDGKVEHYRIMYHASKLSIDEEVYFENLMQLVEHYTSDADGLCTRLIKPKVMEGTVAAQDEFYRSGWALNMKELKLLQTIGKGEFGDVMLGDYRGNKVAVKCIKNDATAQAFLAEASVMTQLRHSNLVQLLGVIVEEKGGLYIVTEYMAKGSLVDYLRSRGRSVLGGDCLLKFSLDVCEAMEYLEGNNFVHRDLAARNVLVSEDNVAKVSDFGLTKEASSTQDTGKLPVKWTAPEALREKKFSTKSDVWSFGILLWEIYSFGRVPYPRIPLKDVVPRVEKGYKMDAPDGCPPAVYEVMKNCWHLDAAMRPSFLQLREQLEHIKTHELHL

| Compound | IC50 [1, 3] [nM] | IC50 [2] [nM] | IC50 [1, 4] [nM] |
| --- | --- | --- | --- |
| CCOc1ccccc1-c1sc2c(NN=Cc3ccc(OC)c(O)c3)ncnc2c1CO [Compound 33, 3-Hydroxy-4-methoxybenzaldehyde (7-hydroxymethyl-6-(2-ethoxyphenyl)thieno[3,2-d]pyrimidin-4-yl)hydrazone] | 11 | 10000 |  |
| C=Cc1c(-c2ccccc2OCC)sc2c(NN=Cc3ccc(OC)c(O)c3)ncnc12 [Compound 34, 3-Hydroxy-4-methoxybenzaldehyde (6-(2-ethoxyphenyl)-7-vinylthieno[3,2-d]pyrimidin-4-yl)hydrazone] | 39 | 1350 | ≤ 2000 |
| CCOc1ccccc1-c1sc2c(NN=Cc3ccc(OC)c(O)c3)ncnc2c1O [Compound 37, 3-Hydroxy-4-methoxybenzaldehyde (6-(2-ethoxyphenyl)-7-hydroxythieno[3,2-d]pyrimidin-4-yl)hydrazone] | 2.6 | 1280 | ≤ 2000 |
| COc1ccc(C=NNc2ncnc3c(C)c(-c4ccc([N+](=O)[O-])cc4)sc23)cc1O [Compound 39, 3-Hydroxy-4-methoxybenzaldehyde (6-(4-nitrophenyl)-7-methylthieno[3,2-d]pyrimidin-4-yl)hydrazone] | 160 | 23000 |  |
| COc1ccc(C=NNc2ncnc3c(C)c(-c4ccc(N(C)C)cc4)sc23)cc1O [Compound 42, 3-Hydroxy-4-methoxybenzaldehyde (6-(4-N,N-dimethylaminophenyl)-7-methylthieno[3,2-d]pyrimidin-4-yl)hydrazone] | 72 | 460 | ≤ 2000 |
| COc1ccc(C=NNc2ncnc3c(C)c(-c4ccc(NC(C)=O)cc4)sc23)cc1O [Compound 43, 3-Hydroxy-4-methoxybenzaldehyde (6-(4-N-acetylaminophenyl)-7-methythieno[3,2-d]pyrimidin-4-yl)hydrazone] | 12 | 112000 |  |
| COc1ccc(C=NNc2ncnc3c(C)c(-c4cccc(C(N)=NO)c4)sc23)cc1O [Compound 45] | 19 | 26800 |  |
| Cc1c(-c2cccc(C(N)=NO)c2)sc2c(NN=Cc3cccnc3)ncnc12 [Compound 49, 3-Pyridinecarboxaldehyde (6-(N-hydroxy-benzamidin-3-yl)-7-methylthieno[3,2-d]pyrimidin-4-yl)hydrazone] | 4.1 | 124000 |  |
| Cc1c(-c2ccc(C(N)=NO)cc2)sc2c(NN=Cc3cccnc3)ncnc12 [Compound 50, 3-Pyridinecarboxaldehyde (6-(N-hydroxy-benzamidin-4-yl)-7-methylthieno[3,2-d]pyrimidin-4-yl)hydrazone] | 25 | 42000 |  |
| COc1ccc(C=NNc2ncnc3c(C)c(-c4ccc(C(N)=NO)cc4)sc23)cc1O [Compound 51, 3-Hydroxy-4-methoxybenzaldehyde (6-(N-hydroxy-benzamidin-4-yl)-7-methylthieno[3,2-d]pyrimidin-4-yl)hydrazone] | 11 | 47000 |  |
| CCOc1ccccc1-c1sc2c(NN=Cc3ccc(OC)c(OCCN4CCOCC4)c3)ncnc2c1C [Compound 52, 4-Methoxy-3-(2-(morpholin-4-yl)-ethoxy)-benzaldehyde (6-(2-ethoxyphenyl)-7-methylthieno[3,2-d]pyrimidin-4-yl)hydrazone] | 1.1 | 46000 |  |
| CCOc1ccccc1-c1sc2c(NN=Cc3ccc(OCCN4CCOCC4)c(OC)c3)ncnc2c1C [Compound 54, 3-Methoxy-4-(2-(morpholin-4-yl)-ethoxy)-benzaldehyde (6-(2-ethoxyphenyl)-7-methylthieno[3,2-d]pyrimidin-4-yl)hydrazone] | 1.4 | 110000 |  |
| COc1ccc(C=NNc2ncnc3c(CO)c(-c4ccc(N)cc4)sc23)cc1O [Compound 58, 3-Hydroxy-4-methoxybenzaldehyde (6-(4-aminophenyl)-7-hydroxymethylthieno[3,2-d]pyrimidin-4-yl)hydrazone] | 43 | 12000 |  |
| CCOc1ccccc1-c1sc2c(NN=Cc3ccc(F)c(Cl)c3)ncnc2c1O [Compound 125, 3-Chloro-4-fluorobenzaldehyde (6-(2-ethoxyphenyl)-7-hydroxythieno[3,2-d]pyrimidin-4-yl)hydrazone] | 45 |  |  |
| CCOc1ccccc1-c1sc2c(NN=Cc3ccc(C)s3)ncnc2c1O [Compound 128, 5-Methyl-2-thiophenecarboxaldehyde (6-(2-ethoxyphenyl)-7-hydroxythieno[3,2-d]pyrimidin-4-yl)hydrazone] | 2.8 |  |  |
| CCOc1ccccc1-c1sc2c(NN=Cc3ccoc3)ncnc2c1O [Compound 129, 3-Furancarboxaldehyde(6-(2-ethoxyphenyl)-7-hydroxythieno[3,2-d]pyrimidin-4-yl)hydrazone] | 3.4 |  |  |
| CCOc1ccccc1-c1sc2c(NN=Cc3ccc(NC(C)=O)cc3)ncnc2c1O [Compound 132, 4-Acetamidobenzaldehyde (6-(2-ethoxyphenyl)-7-hydroxythieno[3,2-d]pyrimidin-4-yl)hydrazone] | 2.4 |  |  |
| CCOc1ccccc1-c1sc2c(NN=Cc3ccc(N(C)C)cc3)ncnc2c1O [Compound 133, 4-N,N-Dimethylaminobenzaldehyde (6-(2-ethoxyphenyl)-7-hydroxythieno[3,2-d]pyrimidin-4-yl)hydrazone] | 6.2 |  |  |
| CCOc1ccccc1-c1sc2c(NN=Cc3cccc(F)c3)ncnc2c1C#N [Compound 139, 3-Fluorobenzaldehyde (7-cyano-6-(2-ethoxyphenyl)thieno[3,2-d]pyrimidin-4-yl)hydrazone] | 4.7 |  |  |
| CCOc1cc(F)ccc1-c1sc2c(NN=Cc3cc(OC)c(OCCN(CC)CC)c(OC)c3)ncnc2c1O [Compound 159, 4-(2-Diethylamino-ethoxy)-3,5-dimethoxy-benzaldehyde (6-(2-ethoxy-4-fluorophenyl)-7-hydroxythieno[3,2-d]pyrimidin-4-yl)hydrazone] | 0.56 |  |  |
| CCOc1cc(F)ccc1-c1sc2c(NN=Cc3cc(OC)c(OCCN(CC)CC)c(OC)c3)ncnc2c1C [Compound 160, 4-(2-Diethylamino-ethoxy)-3,5-dimethoxy-benzaldehyde (6-(2-ethoxy-4-fluorophenyl)-7-methylthieno[3,2-d]pyrimidin-4-yl)hydrazone] | 0.3 |  |  |
| CCOc1ccccc1-c1sc2c(NN=Cc3ccc(OC)c(O)c3)ncnc2c1CC [compound 35] | 14 |  |  |
| CCOc1ccccc1-c1sc2c(NN=Cc3ccc(OC)c(O)c3)ncnc2c1C#N [compound 47] | 1.5 |  |  |
| CCOc1ccccc1-c1sc2c(NN=Cc3cccnc3)ncnc2c1C#N [compound 67] | 1.2 |  |  |

| Compound | IC50 [1, 3] [nM] | IC50 [2] [nM] | IC50 [1, 4] [nM] |
| --- | --- | --- | --- |
| CCOc1ccccc1-c1sc2c(NN=Cc3ccc(O)c(OC)c3)ncnc2c1C#N [compound 86] | 1.4 |  |  |
| CCOc1ccccc1-c1sc2c(NN=Cc3cc(Br)c(O)c(OC)c3)ncnc2c1C#N [compound 87] | 0.31 |  |  |
| CCOc1ccccc1-c1sc2c(NN=Cc3ccc(O)c(Cl)c3)ncnc2c1C#N [compound 90] | 2.1 |  |  |
| CCOc1ccccc1-c1sc2c(NN=Cc3ccsc3)ncnc2c1C#N [compound 91] | 0.58 |  |  |
| CCOc1ccccc1-c1sc2c(NN=Cc3cc(OC)c(O)c(OC)c3)ncnc2c1C#N [compound 94] | 0.34 |  |  |
| CCOc1ccccc1-c1sc2c(NN=Cc3ncc[nH]3)ncnc2c1C#N [compound 95] | 25 |  |  |
| CCOc1ccccc1-c1sc2c(NN=Cc3cc(O)c(OC)c(OC)c3)ncnc2c1C#N [compound 98] | 1 |  |  |
| CCOc1ccccc1-c1sc2c(NN=Cc3ccc(O)cc3)ncnc2c1C#N [compound 102] | 1.5 |  |  |
| CCOc1cc(F)ccc1-c1sc2c(NN=Cc3cccs3)ncnc2c1C#N [compound 108] | 8.5 |  |  |
| CCOc1ccccc1-c1sc2c(NN=Cc3ccncc3)ncnc2c1C#N [compound 110] | 1.9 |  |  |
| CCOc1ccccc1-c1sc2c(NN=Cc3c[nH]c(=O)[nH]c3=O)ncnc2c1C#N [compound 111] | 12 |  |  |
| CCOc1ccccc1-c1sc2c(NN=Cc3cccc(C(=O)O)c3)ncnc2c1C#N [compound 114] | 3.2 |  |  |
| CCOc1ccccc1-c1sc2c(NN=Cc3[nH]cnc3C)ncnc2c1C#N [compound 115] | 2.6 |  |  |
| CCOc1ccccc1-c1sc2c(NN=Cc3ccc(C(=O)OC)cc3)ncnc2c1C#N [compound 118] | 22 |  |  |
| CCOc1ccccc1-c1sc2c(NN=Cc3ccco3)ncnc2c1C#N [compound 119] | 4.7 |  |  |
| CCOc1ccccc1-c1sc2c(NN=Cc3sccc3C)ncnc2c1C#N [compound 122] | 5.2 |  |  |
| CCOc1ccccc1-c1sc2c(NN=Cc3ccc(C)s3)ncnc2c1C#N [compound 126] | 4.9 |  |  |
| CCOc1ccccc1-c1sc2c(NN=Cc3ccoc3)ncnc2c1C#N [compound 127] | 3 |  |  |
| CCOc1ccccc1-c1sc2c(NN=Cc3ccc(NC(C)=O)cc3)ncnc2c1C#N [compound 130] | 1.8 |  |  |
| CCOc1ccccc1-c1sc2c(NN=Cc3ccc(N(C)C)cc3)ncnc2c1C#N [compound 131] | 130 |  |  |
| CCOc1ccccc1-c1sc2c(NN=Cc3ccc(C)o3)ncnc2c1C#N [compound 134] | 2.6 |  |  |
| CCOc1ccccc1-c1sc2c(NN=Cc3ccc(F)cc3)ncnc2c1C#N [compound 135] | 4 |  |  |
| CCOc1ccccc1-c1sc2c(NN=Cc3nccn3C)ncnc2c1C#N [compound 138] | 18 |  |  |
